Reference: patent US20220168307A1, “TREATMENT OF SMA” (Hoffmann-La Roche Inc., priority 2019, published 2022)
“And” between values parts separate entries of the source, which are not always exact repeats. Equal entries are not always repeated. “Also recorded” adds a separate entry of the source. Where two headings read alike, the source gives them in different places.

What was measured:
CYP3A4 [1] = target: T1, CYP3A4 (Homo sapiens, UniProt P08684); experiment: in vitro; settings: for % Remaining: duplicates; for IC50: human, microsomes, 30 min pre-incubation
Experimental: (§1) Donors CMV negative for serology are unm
(§2) All incubations were conducted in duplicate.
% remaining=(C+I/C^−I)*100
Target sequence in this assay (P08684 2-503): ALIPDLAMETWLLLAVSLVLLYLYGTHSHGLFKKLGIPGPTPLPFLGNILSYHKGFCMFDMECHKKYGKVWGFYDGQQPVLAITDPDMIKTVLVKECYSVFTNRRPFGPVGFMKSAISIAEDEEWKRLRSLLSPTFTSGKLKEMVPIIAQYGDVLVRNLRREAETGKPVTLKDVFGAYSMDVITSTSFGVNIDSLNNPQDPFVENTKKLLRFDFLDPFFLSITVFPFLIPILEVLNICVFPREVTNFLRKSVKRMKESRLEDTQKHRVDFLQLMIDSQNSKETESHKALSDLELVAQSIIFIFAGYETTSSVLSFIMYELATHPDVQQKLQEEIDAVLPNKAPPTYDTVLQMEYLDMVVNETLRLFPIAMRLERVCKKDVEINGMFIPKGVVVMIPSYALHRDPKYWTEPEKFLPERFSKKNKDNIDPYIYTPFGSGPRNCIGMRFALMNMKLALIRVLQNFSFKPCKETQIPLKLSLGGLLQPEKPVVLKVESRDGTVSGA

CYP2C9 = CYP2C9 (Homo sapiens, UniProt P11712); experiment: in vitro; settings: pooled human liver microsomes, pH 7.4, probe diclofenac
Sequence of CYP2C9 (P11712 whole entry): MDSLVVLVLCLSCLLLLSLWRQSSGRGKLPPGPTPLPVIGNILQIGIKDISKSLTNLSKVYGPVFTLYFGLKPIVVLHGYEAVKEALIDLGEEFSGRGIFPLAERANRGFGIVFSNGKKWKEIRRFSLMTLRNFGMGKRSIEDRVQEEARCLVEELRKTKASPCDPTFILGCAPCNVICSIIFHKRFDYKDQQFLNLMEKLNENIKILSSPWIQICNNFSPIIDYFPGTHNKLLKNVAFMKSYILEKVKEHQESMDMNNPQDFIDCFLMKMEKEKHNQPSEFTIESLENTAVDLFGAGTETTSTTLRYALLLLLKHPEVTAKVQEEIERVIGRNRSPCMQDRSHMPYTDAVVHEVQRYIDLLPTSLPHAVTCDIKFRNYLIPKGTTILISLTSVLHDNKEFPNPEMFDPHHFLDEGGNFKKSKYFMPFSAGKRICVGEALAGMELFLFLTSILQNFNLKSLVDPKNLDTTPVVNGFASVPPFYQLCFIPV

CYP2C8 = target: T2, CYP2C8 (Homo sapiens, UniProt P10632); experiment: Direct inhibition of CYP2C8 (amodiaquine) in human liver microsomes
T2 sequence (P10632 1-490): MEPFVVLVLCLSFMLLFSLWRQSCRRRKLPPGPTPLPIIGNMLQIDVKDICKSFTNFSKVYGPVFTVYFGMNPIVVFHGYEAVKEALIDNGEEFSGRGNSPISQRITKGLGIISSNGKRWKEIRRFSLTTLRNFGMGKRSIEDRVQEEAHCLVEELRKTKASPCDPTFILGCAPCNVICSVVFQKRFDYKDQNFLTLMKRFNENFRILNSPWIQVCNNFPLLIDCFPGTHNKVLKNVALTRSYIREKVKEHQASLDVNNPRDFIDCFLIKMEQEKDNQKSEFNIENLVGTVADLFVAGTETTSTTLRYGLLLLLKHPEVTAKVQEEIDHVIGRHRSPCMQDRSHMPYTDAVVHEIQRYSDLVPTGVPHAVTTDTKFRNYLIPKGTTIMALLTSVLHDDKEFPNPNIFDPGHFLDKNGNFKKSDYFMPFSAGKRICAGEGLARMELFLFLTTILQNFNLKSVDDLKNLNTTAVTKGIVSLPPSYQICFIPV

CYP2B6 = target: T3, CYP2B6 (Homo sapiens, UniProt P20813); settings: risdiplam up to 12.5 μM
T3 sequence (P20813 1-491): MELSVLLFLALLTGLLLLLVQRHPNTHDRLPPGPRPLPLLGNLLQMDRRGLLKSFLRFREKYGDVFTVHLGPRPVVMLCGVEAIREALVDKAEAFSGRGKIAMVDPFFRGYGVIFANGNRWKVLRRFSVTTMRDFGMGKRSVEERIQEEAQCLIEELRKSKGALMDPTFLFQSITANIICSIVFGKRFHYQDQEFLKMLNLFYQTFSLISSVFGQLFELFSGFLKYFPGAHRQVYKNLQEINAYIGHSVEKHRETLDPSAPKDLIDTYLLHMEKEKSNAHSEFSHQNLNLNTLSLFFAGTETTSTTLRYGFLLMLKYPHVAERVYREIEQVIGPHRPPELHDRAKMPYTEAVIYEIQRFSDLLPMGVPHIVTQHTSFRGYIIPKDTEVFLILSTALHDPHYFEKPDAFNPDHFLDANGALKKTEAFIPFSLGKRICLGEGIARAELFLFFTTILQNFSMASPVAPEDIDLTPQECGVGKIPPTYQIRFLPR

CYP3A4 [2] = target: T1, CYP3A4; settings: microsomes, pH 7.4
Experimental: as §1, §2
Target sequence in this assay (P08684 whole entry): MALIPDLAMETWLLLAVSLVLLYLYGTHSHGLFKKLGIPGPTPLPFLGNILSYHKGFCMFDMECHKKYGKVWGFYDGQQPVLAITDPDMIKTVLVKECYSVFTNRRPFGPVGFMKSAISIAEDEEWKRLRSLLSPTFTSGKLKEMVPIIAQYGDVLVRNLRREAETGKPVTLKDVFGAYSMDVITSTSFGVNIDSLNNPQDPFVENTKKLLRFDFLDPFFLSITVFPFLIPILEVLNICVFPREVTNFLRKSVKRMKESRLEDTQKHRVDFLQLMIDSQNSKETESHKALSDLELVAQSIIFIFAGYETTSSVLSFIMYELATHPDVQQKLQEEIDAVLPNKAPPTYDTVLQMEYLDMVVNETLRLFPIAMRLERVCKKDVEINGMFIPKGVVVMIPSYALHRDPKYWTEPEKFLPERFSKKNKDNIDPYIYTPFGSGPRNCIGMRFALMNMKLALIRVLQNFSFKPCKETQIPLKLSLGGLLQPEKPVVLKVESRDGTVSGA
The first order rate constant for inactivation (λ or kabs) was estimated from slopes of the linear portion of the curves.

## Cc1cn2nc(-c3cc(=O)n4cc(N5CCNC6(CC6)C5)ccc4n3)cc(C)c2n1 [risdiplam, 7-(4,7-diazaspiro[2.5]octan-7-yl)-2-(2,8-dimethylimidazo[1,2-b]pyridazin-6-yl)pyrido[1,2-a]pyrimidin-4-one]
CYP3A4 [1]; CYP3A4-Midazolam, minus NADPH, risdiplam pre-incubation 0.10 μM
  % Remaining: 88% and 103%
CYP3A4 [1]; CYP3A4-Midazolam, minus NADPH, risdiplam pre-incubation 0.20 μM
  % Remaining: 99% and 103%
CYP3A4 [1]; CYP3A4-Midazolam, minus NADPH, risdiplam pre-incubation 0.50 μM
  % Remaining: 99% and 108%
CYP3A4 [1]; CYP3A4-Midazolam, minus NADPH, risdiplam pre-incubation 1.3 μM
  % Remaining: 99% and 110%
CYP3A4 [1]; CYP3A4-Midazolam, minus NADPH, risdiplam pre-incubation 3.2 μM
  % Remaining: 99% and 100%
CYP3A4 [1]; CYP3A4-Midazolam, minus NADPH, risdiplam pre-incubation 8.0 μM
  % Remaining: 95% and 106%
CYP3A4 [1]; CYP3A4-Midazolam, minus NADPH, risdiplam pre-incubation 12.5 μM
  % Remaining: 115% and 108%
CYP3A4 [1]; CYP3A4-Midazolam, plus NADPH, risdiplam pre-incubation 0.10 μM
  % Remaining: 101% and 105%
CYP3A4 [1]; CYP3A4-Midazolam, plus NADPH, risdiplam pre-incubation 0.20 μM
  % Remaining: 101% and 109%
CYP3A4 [1]; CYP3A4-Midazolam, plus NADPH, risdiplam pre-incubation 0.50 μM
  % Remaining: 94% and 109%
CYP3A4 [1]; CYP3A4-Midazolam, plus NADPH, risdiplam pre-incubation 1.3 μM
  % Remaining: 90% and 96%
CYP3A4 [1]; CYP3A4-Midazolam, plus NADPH, risdiplam pre-incubation 3.2 μM
  % Remaining: 60% and 64%
CYP3A4 [1]; CYP3A4-Midazolam, plus NADPH, risdiplam pre-incubation 8.0 μM
  % Remaining: 28% and 30%
CYP3A4 [1]; CYP3A4-Midazolam, plus NADPH, risdiplam pre-incubation 12.5 μM
  % Remaining: 22% and 21%
CYP3A4 [1]; CYP3A4-Testosterone, minus NADPH, risdiplam pre-incubation 0.10 μM
  % Remaining: 101% and 99%
CYP3A4 [1]; CYP3A4-Testosterone, minus NADPH, risdiplam pre-incubation 0.20 μM
  % Remaining: 94% and 93%
CYP3A4 [1]; CYP3A4-Testosterone, minus NADPH, risdiplam pre-incubation 0.50 μM
  % Remaining: 100% and 93%
CYP3A4 [1]; CYP3A4-Testosterone, minus NADPH, risdiplam pre-incubation 1.3 μM
  % Remaining: 102% and 95%
CYP3A4 [1]; CYP3A4-Testosterone, minus NADPH, risdiplam pre-incubation 3.2 μM
  % Remaining: 93% and 102%
CYP3A4 [1]; CYP3A4-Testosterone, minus NADPH, risdiplam pre-incubation 8.0 μM
  % Remaining: 90% and 88%
CYP3A4 [1]; CYP3A4-Testosterone, minus NADPH, risdiplam pre-incubation 12.5 μM
  % Remaining: 89%
CYP3A4 [1]; CYP3A4-Testosterone, plus NADPH, risdiplam pre-incubation 0.10 μM
  % Remaining: 97% and 95%
CYP3A4 [1]; CYP3A4-Testosterone, plus NADPH, risdiplam pre-incubation 0.20 μM
  % Remaining: 98% and 93%
CYP3A4 [1]; CYP3A4-Testosterone, plus NADPH, risdiplam pre-incubation 0.50 μM
  % Remaining: 94% and 92%
CYP3A4 [1]; CYP3A4-Testosterone, plus NADPH, risdiplam pre-incubation 1.3 μM
  % Remaining: 90% and 85%
CYP3A4 [1]; CYP3A4-Testosterone, plus NADPH, risdiplam pre-incubation 3.2 μM
  % Remaining: 63% and 62%
CYP3A4 [1]; CYP3A4-Testosterone, plus NADPH, risdiplam pre-incubation 8.0 μM
  % Remaining: 23% and 24%
CYP3A4 [1]; CYP3A4-Testosterone, plus NADPH, risdiplam pre-incubation 12.5 μM
  % Remaining: 13%
CYP3A4 [1]; pH 7.4, IC50, CYP3A4-Midazolam Inactivation, minus NADPH
  IC50: > 12.5 µM
CYP3A4 [1]; pH 7.4, IC50, CYP3A4-Midazolam Inactivation, plus NADPH
  IC50: 4.8 µM
CYP3A4 [1]; pH 7.4, IC50, CYP3A4-Testosterone Inactivation, minus NADPH
  IC50: > 12.5 µM
CYP3A4 [1]; pH 7.4, IC50, CYP3A4-Testosterone Inactivation, plus NADPH
  IC50: 4.1 µM
CYP2C9
  activity: 83%
CYP2C8; direct inhibition, substrate Amodiaquine, concentration not given, duplicates
  % Control activity at: 91%
CYP2C8; risdiplam up to 12.5 μM
  reversible (direct) inhibition (in words): did not show any significant reversible or time-dependent inhibition; also recorded: No significant reversible or time-dependent inhibition; also recorded: No significant reversible inhibition; also recorded: low potential to cause direct or time-dependent inhibition
CYP2B6
  time-dependent inhibition (in words): did not show any significant reversible or time-dependent inhibition; also recorded: No significant reversible or time-dependent inhibition; also recorded: No significant time-dependent inhibition; also recorded: low potential to cause direct or time-dependent inhibition
CYP3A4 [2]; 0 h, 0.1 μM
  Percent CYP3A4 activity remaining: 100%
CYP3A4 [2]; 0 h, 0.2 μM
  Percent CYP3A4 activity remaining: 100%
CYP3A4 [2]; 0 h, 0.5 μM
  Percent CYP3A4 activity remaining: 100%
CYP3A4 [2]; 0 h, 1.3 μM
  Percent CYP3A4 activity remaining: 100%
CYP3A4 [2]; 0 h, 3.2 μM
  Percent CYP3A4 activity remaining: 100%
CYP3A4 [2]; 0 h, 8 μM
  Percent CYP3A4 activity remaining: 100%
CYP3A4 [2]; 0 h, 12.5 μM
  Percent CYP3A4 activity remaining: 100%
CYP3A4 [2]; 4 min, 0.1 μM
  Percent CYP3A4 activity remaining: 90%
CYP3A4 [2]; 4 min, 0.2 μM
  Percent CYP3A4 activity remaining: 90%
CYP3A4 [2]; 4 min, 0.5 μM
  Percent CYP3A4 activity remaining: 87%
CYP3A4 [2]; 4 min, 1.3 μM
  Percent CYP3A4 activity remaining: 82%
CYP3A4 [2]; 4 min, 3.2 μM
  Percent CYP3A4 activity remaining: 89%
CYP3A4 [2]; 4 min, 8 μM
  Percent CYP3A4 activity remaining: 76%
CYP3A4 [2]; 4 min, 12.5 μM
  Percent CYP3A4 activity remaining: 62%
CYP3A4 [2]; 0.25 h, 0.1 μM
  Percent CYP3A4 activity remaining: 80%
CYP3A4 [2]; 0.25 h, 0.2 μM
  Percent CYP3A4 activity remaining: 80%
CYP3A4 [2]; 0.25 h, 0.5 μM
  Percent CYP3A4 activity remaining: 77%
CYP3A4 [2]; 0.25 h, 1.3 μM
  Percent CYP3A4 activity remaining: 71%
CYP3A4 [2]; 0.25 h, 3.2 μM
  Percent CYP3A4 activity remaining: 62%
CYP3A4 [2]; 0.25 h, 8 μM
  Percent CYP3A4 activity remaining: 41%
CYP3A4 [2]; 0.25 h, 12.5 μM
  Percent CYP3A4 activity remaining: 29%
CYP3A4 [2]; 0.5 h, 0.1 μM
  Percent CYP3A4 activity remaining: 78%
CYP3A4 [2]; 0.5 h, 0.2 μM
  Percent CYP3A4 activity remaining: 78%
CYP3A4 [2]; 0.5 h, 0.5 μM
  Percent CYP3A4 activity remaining: 75%
CYP3A4 [2]; 0.5 h, 1.3 μM
  Percent CYP3A4 activity remaining: 65%
CYP3A4 [2]; 0.5 h, 3.2 μM
  Percent CYP3A4 activity remaining: 49%
CYP3A4 [2]; 0.5 h, 8 μM
  Percent CYP3A4 activity remaining: 25%
CYP3A4 [2]; 0.5 h, 12.5 μM
  Percent CYP3A4 activity remaining: 17%
CYP3A4 [2]; 0.75 h, 0.1 μM
  Percent CYP3A4 activity remaining: 72%
CYP3A4 [2]; 0.75 h, 0.2 μM
  Percent CYP3A4 activity remaining: 72%
CYP3A4 [2]; 0.75 h, 0.5 μM
  Percent CYP3A4 activity remaining: 68%
CYP3A4 [2]; 0.75 h, 1.3 μM
  Percent CYP3A4 activity remaining: 55%
CYP3A4 [2]; 0.75 h, 3.2 μM
  Percent CYP3A4 activity remaining: 39%
CYP3A4 [2]; 0.75 h, 8 μM
  Percent CYP3A4 activity remaining: 19%
CYP3A4 [2]; 0.75 h, 12.5 μM
  Percent CYP3A4 activity remaining: 13%
CYP3A4 [2]; 1 h, 0.1 μM
  Percent CYP3A4 activity remaining: 65%
CYP3A4 [2]; 1 h, 0.2 μM
  Percent CYP3A4 activity remaining: 65%
CYP3A4 [2]; 1 h, 0.5 μM
  Percent CYP3A4 activity remaining: 59%
CYP3A4 [2]; 1 h, 1.3 μM
  Percent CYP3A4 activity remaining: 48%
CYP3A4 [2]; 1 h, 3.2 μM
  Percent CYP3A4 activity remaining: 36%
CYP3A4 [2]; 1 h, 8 μM
  Percent CYP3A4 activity remaining: 15%
CYP3A4 [2]; 1 h, 12.5 μM
  Percent CYP3A4 activity remaining: 10%
